Earlier results in US20030133995A1, “Ingestible capsaicin neutralizer” (priority 2002, published 2003).

How the values were obtained:
[1] = pure capsaicin
[2] = tested on: tongue; conditions: pure form diluted one hundred thousand fold
[3] = pure form

COc1cc(CNC(=O)CCCC/C=C/C(C)C)ccc1O [capsaicin, N-Vanillyl-8-methyl-6-(E)-noneamide]
heat sensation [1]: approximately 16,000,000 Scoville units | blistering of the tongue [2]: can cause blistering of the tongue | solubility in aqueous solutions ([3]; aqueous solutions): not very soluble | solubility in fats, oils and alcohols ([3]; fats, oils and alcohols): quite soluble
